{"source": "paper PMC4579270", "about": "“Identification and Characterization of an Irreversible Inhibitor of CDK2” (Chemistry & Biology, 2015)", "experiment_in_all_cases": "Dundee kinase screen re-test (standard format and 4 hour pre-incubation)", "type_in_all_cases": "biochemical", "key": {"Aurora B": {"target": "Aurora B (Homo sapiens, UniProt Q96GD4)", "sequence (Q96GD4 whole entry)": "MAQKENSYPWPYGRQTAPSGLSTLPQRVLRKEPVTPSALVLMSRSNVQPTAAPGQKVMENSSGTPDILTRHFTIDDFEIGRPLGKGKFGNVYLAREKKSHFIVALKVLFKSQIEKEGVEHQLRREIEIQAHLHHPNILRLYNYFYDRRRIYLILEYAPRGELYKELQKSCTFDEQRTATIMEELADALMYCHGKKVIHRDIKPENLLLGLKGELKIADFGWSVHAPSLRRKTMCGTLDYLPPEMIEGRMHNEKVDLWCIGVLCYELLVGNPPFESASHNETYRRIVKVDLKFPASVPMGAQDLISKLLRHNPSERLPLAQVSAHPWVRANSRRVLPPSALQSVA", "procedure": "(§1) Prior to determining its cellular activity, we carried out a screen to assess its selectivity against a panel of 131 protein kinases under conditions that would not distinguish between a reversible or irreversible mode of action. […] These 13 kinases and 29 additional kinases, selected for their known sensitivity to other inhibitors within the purine series, were then tested in a modified screening format in which the assay was repeated following a 4-hr pre-incubation (Table S3B). […] However, conformational flexibility around the active site may promote such an interaction with a residue from another part of the structure ([Martin et al., 2012]).\n(§2) Table S3, Related to Figure 4. NCL-0006300 protein kinase selectivity. (A) NU6300 was tested at a single concentration of 1µM against 131 protein kinases present in a Dundee protein kinase screen (Bain et al., 2007). Values given are % activity remaining and are the average of duplicate measurements: 0-25% (red), 26-50% (yellow), 51-80% (black) and above 81% (green). The kinase domain sequences (as defined by UniProt) of […]\n(§3) have a lysine residue at a position close to CDK2 Lys88 or Lys89. However, in the structure of tyrosine-protein kinase BTK (PDB ID: 3GEN) the residue equivalent to CDK2 Asp86 is Cys481 and therefore there is the potential for a covalent adduct to be formed through this side chain. Ephrin type-B receptor 3 (UniProt entry P54753) also encodes a cysteine residue (Cys717) that by sequence alignment would be predicted to be close to the CDK2 lysine pair. (B) Selected kinases were re-tested in the Dundee kinase screen against NU6300 at a single concentration of 0.5 µM both in the standard assay format and following a 4 hour pre-incubation in the presence of NU6300. Kinases which have very low activity after the 4 hour incubation so that results might not be wholly reliable are boxed in salmon. Kinases where the activity after a 4 hour pre-incubation is < 50% that in the standard assay format are highlighted in red."}, "CHK2": {"target": "CHK2 (Homo sapiens, UniProt O96017)", "sequence (O96017 whole entry)": "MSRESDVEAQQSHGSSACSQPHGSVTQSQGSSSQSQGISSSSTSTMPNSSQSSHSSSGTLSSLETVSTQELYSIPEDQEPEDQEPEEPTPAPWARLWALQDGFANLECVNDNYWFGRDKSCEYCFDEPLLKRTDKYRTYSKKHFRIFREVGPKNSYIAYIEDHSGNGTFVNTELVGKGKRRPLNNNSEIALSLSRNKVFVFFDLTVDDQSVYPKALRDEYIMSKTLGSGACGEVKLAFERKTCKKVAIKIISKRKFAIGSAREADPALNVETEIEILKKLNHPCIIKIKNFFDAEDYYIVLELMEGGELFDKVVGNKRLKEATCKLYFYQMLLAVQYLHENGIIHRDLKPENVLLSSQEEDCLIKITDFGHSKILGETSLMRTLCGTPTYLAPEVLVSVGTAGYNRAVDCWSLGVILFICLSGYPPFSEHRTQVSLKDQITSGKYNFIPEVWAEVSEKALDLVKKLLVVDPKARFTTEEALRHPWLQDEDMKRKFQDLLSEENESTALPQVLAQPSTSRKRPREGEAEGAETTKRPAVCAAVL", "conditions": "CHK2, 0.5µM", "procedure": "as §1, §2, §3"}, "IRAK1": {"target": "IRAK1 (Homo sapiens, UniProt P51617)", "sequence (P51617 whole entry)": "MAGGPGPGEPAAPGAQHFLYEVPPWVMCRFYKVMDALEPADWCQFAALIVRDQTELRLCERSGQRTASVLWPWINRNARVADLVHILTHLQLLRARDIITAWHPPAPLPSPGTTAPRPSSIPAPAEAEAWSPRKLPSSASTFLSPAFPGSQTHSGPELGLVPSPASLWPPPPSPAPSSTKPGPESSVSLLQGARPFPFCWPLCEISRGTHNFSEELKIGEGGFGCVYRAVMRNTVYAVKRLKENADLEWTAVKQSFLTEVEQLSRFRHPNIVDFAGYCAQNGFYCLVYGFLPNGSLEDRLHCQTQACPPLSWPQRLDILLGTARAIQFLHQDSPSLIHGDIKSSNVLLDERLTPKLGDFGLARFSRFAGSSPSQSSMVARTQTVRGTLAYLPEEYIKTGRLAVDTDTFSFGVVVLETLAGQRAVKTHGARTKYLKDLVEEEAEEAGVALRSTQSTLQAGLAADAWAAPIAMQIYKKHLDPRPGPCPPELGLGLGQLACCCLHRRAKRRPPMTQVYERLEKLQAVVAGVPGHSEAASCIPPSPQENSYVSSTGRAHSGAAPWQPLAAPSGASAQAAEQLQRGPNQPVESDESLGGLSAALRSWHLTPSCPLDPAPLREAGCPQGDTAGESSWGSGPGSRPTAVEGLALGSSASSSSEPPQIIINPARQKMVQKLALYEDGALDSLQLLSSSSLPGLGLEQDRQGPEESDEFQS", "conditions": "IRAK1, 0.5µM", "procedure": "as §1, §2, §3"}, "Lck": {"target": "Lck (Homo sapiens, UniProt P06239)", "sequence (P06239 whole entry)": "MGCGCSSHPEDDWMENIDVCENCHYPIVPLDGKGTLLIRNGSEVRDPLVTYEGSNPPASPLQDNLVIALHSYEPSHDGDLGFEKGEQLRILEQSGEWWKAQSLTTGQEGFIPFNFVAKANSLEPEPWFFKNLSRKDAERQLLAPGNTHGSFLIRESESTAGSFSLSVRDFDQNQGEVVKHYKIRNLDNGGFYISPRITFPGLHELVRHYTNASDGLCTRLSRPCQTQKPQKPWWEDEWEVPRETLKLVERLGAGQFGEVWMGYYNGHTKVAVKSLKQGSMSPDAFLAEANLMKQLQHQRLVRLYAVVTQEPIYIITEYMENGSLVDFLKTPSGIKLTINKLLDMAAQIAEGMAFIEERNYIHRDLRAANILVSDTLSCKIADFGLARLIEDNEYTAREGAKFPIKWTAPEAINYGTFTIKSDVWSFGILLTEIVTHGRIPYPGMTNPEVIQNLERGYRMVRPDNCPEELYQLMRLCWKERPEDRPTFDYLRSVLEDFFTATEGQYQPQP", "procedure": "as §1, §2, §3"}, "MARK1": {"target": "MARK1 (Homo sapiens, UniProt Q9P0L2)", "sequence (Q9P0L2 whole entry)": "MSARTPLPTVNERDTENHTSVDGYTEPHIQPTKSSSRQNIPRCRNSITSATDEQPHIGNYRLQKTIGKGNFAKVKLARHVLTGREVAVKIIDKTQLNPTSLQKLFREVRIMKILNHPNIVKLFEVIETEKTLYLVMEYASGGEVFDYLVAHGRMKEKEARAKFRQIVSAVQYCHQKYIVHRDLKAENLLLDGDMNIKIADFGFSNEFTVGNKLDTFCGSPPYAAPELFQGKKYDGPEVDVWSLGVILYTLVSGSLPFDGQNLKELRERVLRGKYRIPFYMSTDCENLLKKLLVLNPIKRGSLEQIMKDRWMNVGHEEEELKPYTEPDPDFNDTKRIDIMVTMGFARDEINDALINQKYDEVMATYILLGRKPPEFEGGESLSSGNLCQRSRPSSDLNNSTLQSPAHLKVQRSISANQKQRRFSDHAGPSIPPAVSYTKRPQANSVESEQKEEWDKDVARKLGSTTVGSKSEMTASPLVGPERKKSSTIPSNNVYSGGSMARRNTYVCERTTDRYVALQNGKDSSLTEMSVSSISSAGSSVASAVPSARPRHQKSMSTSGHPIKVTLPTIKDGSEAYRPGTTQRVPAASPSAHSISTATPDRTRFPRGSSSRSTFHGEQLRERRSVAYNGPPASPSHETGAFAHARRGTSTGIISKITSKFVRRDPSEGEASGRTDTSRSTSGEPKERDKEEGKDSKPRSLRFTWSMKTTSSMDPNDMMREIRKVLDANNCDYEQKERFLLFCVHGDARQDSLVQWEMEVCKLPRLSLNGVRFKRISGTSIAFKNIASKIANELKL", "conditions": "MARK1, 0.5µM", "procedure": "as §1, §2, §3"}, "MST2": {"target": "T1, MST2 (Homo sapiens, UniProt Q13188)", "T1 sequence (Q13188 1-491)": "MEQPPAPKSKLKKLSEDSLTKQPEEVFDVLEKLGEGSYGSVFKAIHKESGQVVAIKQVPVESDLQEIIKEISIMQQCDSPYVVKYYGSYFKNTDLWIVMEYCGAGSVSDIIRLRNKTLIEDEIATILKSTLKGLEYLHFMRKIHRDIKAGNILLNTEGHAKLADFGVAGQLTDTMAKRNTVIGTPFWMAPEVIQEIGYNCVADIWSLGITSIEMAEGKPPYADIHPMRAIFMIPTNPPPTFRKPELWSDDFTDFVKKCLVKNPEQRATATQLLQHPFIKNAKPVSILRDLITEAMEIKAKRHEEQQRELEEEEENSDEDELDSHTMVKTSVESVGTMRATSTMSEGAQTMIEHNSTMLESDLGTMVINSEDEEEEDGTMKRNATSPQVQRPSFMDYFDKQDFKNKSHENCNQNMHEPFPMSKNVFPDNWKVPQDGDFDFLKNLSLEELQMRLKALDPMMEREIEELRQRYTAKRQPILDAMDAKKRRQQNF", "conditions": "for remaining activity at 0.5 µM: MST2, 0.5µM", "procedure": "as §1, §2, §3"}, "NUAK1": {"target": "T2, NUAK1 (Homo sapiens, UniProt O60285)", "T2 sequence (O60285 1-661)": "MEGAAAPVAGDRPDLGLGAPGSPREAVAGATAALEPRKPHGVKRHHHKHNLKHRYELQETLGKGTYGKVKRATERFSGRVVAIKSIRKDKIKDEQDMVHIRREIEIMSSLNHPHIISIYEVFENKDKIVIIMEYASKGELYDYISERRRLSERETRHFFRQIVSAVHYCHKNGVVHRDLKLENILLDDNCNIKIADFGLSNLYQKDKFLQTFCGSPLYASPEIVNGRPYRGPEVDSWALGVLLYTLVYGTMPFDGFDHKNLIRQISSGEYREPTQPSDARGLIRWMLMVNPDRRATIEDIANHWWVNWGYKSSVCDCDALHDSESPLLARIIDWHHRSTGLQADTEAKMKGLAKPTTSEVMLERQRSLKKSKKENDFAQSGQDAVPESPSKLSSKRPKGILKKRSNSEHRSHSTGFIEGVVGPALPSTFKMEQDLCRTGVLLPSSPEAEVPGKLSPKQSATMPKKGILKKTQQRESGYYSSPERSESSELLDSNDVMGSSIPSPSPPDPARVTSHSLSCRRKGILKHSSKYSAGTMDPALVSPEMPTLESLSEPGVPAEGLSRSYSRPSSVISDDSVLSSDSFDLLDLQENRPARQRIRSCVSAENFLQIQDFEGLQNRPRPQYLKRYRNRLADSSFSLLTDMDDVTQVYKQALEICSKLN", "conditions": "NUAK1, 0.5µM", "procedure": "as §1, §2, §3"}, "PAK5": {"target": "PAK5 (Homo sapiens, UniProt Q9P286)", "sequence (Q9P286 whole entry)": "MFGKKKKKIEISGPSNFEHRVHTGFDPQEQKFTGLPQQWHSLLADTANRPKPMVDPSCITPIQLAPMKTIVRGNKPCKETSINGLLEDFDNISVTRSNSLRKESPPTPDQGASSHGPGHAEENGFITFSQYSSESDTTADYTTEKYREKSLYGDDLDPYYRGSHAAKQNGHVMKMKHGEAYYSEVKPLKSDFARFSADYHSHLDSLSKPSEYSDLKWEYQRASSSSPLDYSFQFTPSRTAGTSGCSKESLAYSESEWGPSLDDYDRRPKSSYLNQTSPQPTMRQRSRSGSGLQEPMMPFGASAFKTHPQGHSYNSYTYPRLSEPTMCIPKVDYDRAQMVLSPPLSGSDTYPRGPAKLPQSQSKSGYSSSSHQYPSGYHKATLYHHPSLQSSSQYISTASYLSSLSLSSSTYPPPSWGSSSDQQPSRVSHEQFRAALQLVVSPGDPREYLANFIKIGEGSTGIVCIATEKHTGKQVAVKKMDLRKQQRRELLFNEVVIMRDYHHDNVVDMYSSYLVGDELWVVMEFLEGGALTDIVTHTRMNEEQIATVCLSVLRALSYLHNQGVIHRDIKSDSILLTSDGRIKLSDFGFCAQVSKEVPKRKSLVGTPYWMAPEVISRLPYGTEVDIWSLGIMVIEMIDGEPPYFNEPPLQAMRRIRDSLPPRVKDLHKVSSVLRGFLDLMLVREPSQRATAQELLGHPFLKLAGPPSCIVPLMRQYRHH", "conditions": "PAK5, 0.5µM", "procedure": "as §1, §2, §3"}, "PRK2": {"target": "PRK2 (Homo sapiens, UniProt Q16513)", "sequence (Q16513 whole entry)": "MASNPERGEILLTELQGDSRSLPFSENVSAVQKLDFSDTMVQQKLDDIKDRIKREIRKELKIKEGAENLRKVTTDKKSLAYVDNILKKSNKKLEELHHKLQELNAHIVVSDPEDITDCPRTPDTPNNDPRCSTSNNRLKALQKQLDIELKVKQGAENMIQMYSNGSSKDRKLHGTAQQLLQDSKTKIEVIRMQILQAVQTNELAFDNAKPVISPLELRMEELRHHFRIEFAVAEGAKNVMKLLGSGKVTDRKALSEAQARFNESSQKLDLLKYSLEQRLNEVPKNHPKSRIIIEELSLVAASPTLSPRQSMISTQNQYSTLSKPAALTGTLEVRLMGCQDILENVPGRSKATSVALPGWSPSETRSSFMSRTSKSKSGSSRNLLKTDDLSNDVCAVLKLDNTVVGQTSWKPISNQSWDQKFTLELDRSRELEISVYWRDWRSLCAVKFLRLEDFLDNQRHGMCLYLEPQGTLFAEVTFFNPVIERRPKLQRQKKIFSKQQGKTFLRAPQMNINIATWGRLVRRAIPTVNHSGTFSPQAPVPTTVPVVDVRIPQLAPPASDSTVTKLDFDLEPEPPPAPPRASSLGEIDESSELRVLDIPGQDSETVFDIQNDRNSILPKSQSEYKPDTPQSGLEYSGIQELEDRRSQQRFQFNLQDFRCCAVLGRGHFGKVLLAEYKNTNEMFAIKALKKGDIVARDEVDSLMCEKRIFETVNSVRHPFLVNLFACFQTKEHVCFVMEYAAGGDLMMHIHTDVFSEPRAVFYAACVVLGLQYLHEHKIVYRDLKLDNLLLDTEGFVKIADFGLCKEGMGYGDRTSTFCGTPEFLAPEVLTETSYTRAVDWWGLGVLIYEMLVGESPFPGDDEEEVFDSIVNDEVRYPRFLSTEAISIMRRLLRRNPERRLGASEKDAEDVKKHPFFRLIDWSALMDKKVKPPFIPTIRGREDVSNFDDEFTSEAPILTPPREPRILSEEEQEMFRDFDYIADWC", "conditions": "PRK2, 0.5µM", "procedure": "as §1, §2, §3"}, "[1]": {"conditions": "4hr RT preincubation, read-out: %Remaining activity at 0.5µM NU6300 - 4hr RT preincubation"}, "[2]": {"conditions": "usual format, read-out: %Remaining activity at 0.5µM NU6300 - Usual assay format"}}, "note": "Read-outs that look alike come from different tables or passages of the source."}
{"molecule": "C=CS(=O)(=O)c1ccc(Nc2nc(OCC3CCCCC3)c3nc[nH]c3n2)cc1", "note": "[NU6300, 6-(cyclohexylmethoxy)-N-(4-(vinylsulfonyl)phenyl)-9H-purin-2-amine]", "values": [{"measurement": "remaining activity at 0.5 µM", "setting": "Aurora B; [1]", "result": 87, "unit": "%"}, {"measurement": "remaining activity at 0.5 µM", "setting": "Aurora B; [2]", "result": 43, "unit": "%"}, {"measurement": "remaining activity at 0.5 µM", "setting": "CHK2; [1]", "result": 120, "unit": "%"}, {"measurement": "remaining activity at 0.5 µM", "setting": "CHK2; [2]", "result": 55, "unit": "%"}, {"measurement": "remaining activity at 0.5 µM", "setting": "IRAK1; [1]", "result": 38, "unit": "%"}, {"measurement": "remaining activity at 0.5 µM", "setting": "IRAK1; [2]", "result": 64, "unit": "%"}, {"measurement": "remaining activity at 0.5 µM", "setting": "Lck; [1]", "result": 60, "unit": "%"}, {"measurement": "remaining activity at 0.5 µM", "setting": "Lck; [2]", "result": 67, "unit": "%"}, {"measurement": "remaining activity at 0.5 µM", "setting": "MARK1; [1]", "result": 38, "unit": "%"}, {"measurement": "remaining activity at 0.5 µM", "setting": "MARK1; [2]", "result": 37, "unit": "%"}, {"measurement": "remaining activity at 0.5 µM", "setting": "MST2; [1]", "result": 11, "unit": "%"}, {"measurement": "remaining activity at 0.5 µM", "setting": "MST2; [2]", "result": 38, "unit": "%"}, {"measurement": "additional loss of activity after pre-incubation", "setting": "MST2; Mst2, 4-hr pre-incubation vs usual format, 0.5 µM", "result": "> 50", "unit": "%"}, {"measurement": "remaining activity at 0.5 µM", "setting": "NUAK1; [1]", "result": 18, "unit": "%"}, {"measurement": "remaining activity at 0.5 µM", "setting": "NUAK1; [2]", "result": 12, "unit": "%"}, {"measurement": "remaining activity at 0.5 µM", "setting": "PAK5; [1]", "result": 53, "unit": "%"}, {"measurement": "remaining activity at 0.5 µM", "setting": "PAK5; [2]", "result": 76, "unit": "%"}, {"measurement": "remaining activity at 0.5 µM", "setting": "PRK2; [1]", "result": 84, "unit": "%"}, {"measurement": "remaining activity at 0.5 µM", "setting": "PRK2; [2]", "result": 65, "unit": "%"}]}
